Tests used:
[1] = Water solubility of the isolated active substances; type: physicochemical
Text: In another aspect, the present invention provides a method for separating/purifying the active substances α and β. Specifically, the method includes freeze-drying beer, which serves as the starting material, to remove volatile components and collect non-volatile components; subjecting the non-volatile components to a chromatography using synthetic absorbent to remove unadsorbed components and collect adsorbed components in a crude fraction containing concentrated active substances; subjecting the crude fraction to a weakly acidic cation exchange chromatography to remove unadsorved components; eluting the active substances with acidic methanol (methanol/hydrochloric acid); subjecting the eluate to gel filtration chromatography using 0.01N hydrochloric acid to obtain a purified fraction; subjecting the purified fraction to C18 high performance liquid chromatography (ODS-HPLC) for further purification to isolate the two active substances. The active substances so obtained were water-soluble.

[2] = tested on: stomach emptying in mice; assay: Stomach emptying in mice (phenol red test feed); type: in vivo; details: oral, dose-dependent, P<0.05 vs distilled water, FIG. 15
Procedure: Using a stomach tube, ddY line mice (10 animals in each group) were orally administered each of distilled water, the active substances α and β following an 18-hour fasting period. 60 minutes after administration, each animal was orally administered a test feed (0.2 mL/animal; 1.5% methylcellulose solution containing 0.05% phenol red) using the same technique. After 15 minutes, the animals were sacrificed by cervical dislocation and the stomachs were removed. The stomachs, along with their contents, were then homogenized in 10 mL 0.1N NaOH and the homogenates were allowed to stand for 1 hour at room temperature. To 1 mL of the resulting supernatant, 0.1 mL 20% trichloroacetic acid was added and the supernatant was centrifuged to precipitate proteins. Subsequently, 0.5 ml of the resulting supernatant was collected and 0.5 mL 0.5N NaOH was added to color the solution. The absorbance of the solution at 560 nm was measured to determine the amount of phenol red remaining in the stomach. The rate of stomach emptying was determined by the following equation: Stomach emptying rate (%)=(A−B)/A×100 where ‘A’ is the amount of phenol red in the stomach immediately after the administration of the test feed; and ‘B’ is the amount of phenol red remaining in the stomach 15 minutes after the administration of the test feed. 2. Results

[3] = target: T1, human muscarinic M3 receptors (Homo sapiens, UniProt P20309); assay: Test for binding activity to muscarinic M3 receptors ([3H]4-DAMP displacement)
T1 construct: expressed in transfected cells; host or cells: CHO (Chinese hamster ovary) cells, membrane preparation
T1 sequence (P20309 whole entry): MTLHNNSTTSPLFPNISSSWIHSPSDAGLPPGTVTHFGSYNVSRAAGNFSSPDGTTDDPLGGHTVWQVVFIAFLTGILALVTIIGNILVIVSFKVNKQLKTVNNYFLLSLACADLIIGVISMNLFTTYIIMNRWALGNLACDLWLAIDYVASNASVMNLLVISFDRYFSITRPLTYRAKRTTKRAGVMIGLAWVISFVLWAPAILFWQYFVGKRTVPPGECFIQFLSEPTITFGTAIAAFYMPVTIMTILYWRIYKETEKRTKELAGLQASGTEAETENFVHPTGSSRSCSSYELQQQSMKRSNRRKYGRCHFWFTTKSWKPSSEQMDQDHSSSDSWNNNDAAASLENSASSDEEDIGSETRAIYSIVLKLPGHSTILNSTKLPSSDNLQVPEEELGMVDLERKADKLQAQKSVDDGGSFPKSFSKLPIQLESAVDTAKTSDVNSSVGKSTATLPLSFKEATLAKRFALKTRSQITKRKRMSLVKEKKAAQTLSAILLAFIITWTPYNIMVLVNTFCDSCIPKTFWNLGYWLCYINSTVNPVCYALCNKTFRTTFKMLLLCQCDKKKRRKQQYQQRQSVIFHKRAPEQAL
Procedure: The mixture was then incubated at 22° C. for 60 min. Subsequently, the reaction mixture was filtered through a glass fiber filter (GF/B, PACKARD) while aspirated. Once the reaction came to an end, the mixture was washed several times with ice-chilled buffer. A scintillation cocktail (Microscint O, PACKARD) was then added to the filter, and the residual radioactivity was measured by a liquid scintillation counter (Topcount, PACKARD).

solubility in water [1] | IC50 [3] [nM] | Compound | stimulation of stomach emptying ([2]; 0.1 and 0.3 mg/kg) | stimulation of stomach emptying ([2]; 0.3 and 1.0 mg/kg)
water-soluble | 1180 | N=C(N)NCCCCNC(=O)/C=C/c1ccc2c(c1)[C@H](C(=O)NCCCCNC(=N)N)[C@H](c1ccc(O)cc1)O2 [active substance α] | significantly stimulated stomach emptying | –
water-soluble | 4180 | N=C(N)NCCCCNC(=O)/C=C/c1ccc2c(c1)[C@@H](C(=O)NCCCCNC(=N)N)[C@H](c1ccc(O)cc1)O2 [active substance β] | – | significantly stimulated stomach emptying

— US20050208197A1, “Refreshment capable of stimulating movement of digestive tract” (priority 2002, published 2005)
